System: seeds of wheat
Experimental: Different levels of silicic acid were tested on seeds and in pot experiments to assess their effects on improvement of seed and the growth and yield in wheat.

With silicic acid the “plant growth and yield” value (0.25% and 0.50% silicic acid application, all the varieties of wheat) was “highest” and the rate of germination (silicic acid applied at 0.25-0.50% level, wheat seeds) was “increased”.

From patent US9756861B2, “Micro-colloidal silicic acid / boric acid composition and a method of preparing a bioenhancing solution and powder” (Barlaa B.V., priority 2009, dated 2017)
